Converted amounts (≈) assume the structure as drawn. Where two headings read alike, the source gives them in different places. One block for each molecule: values may come before it.
Experiments:
[1] = tested on: U87MG (human brain star glioblastoma); test: MTT assay, U87MG; type: cell-based; conditions: U-87 MG, 72 h
Description: (§1) 1. Sample preparation: After dissolved with DMSO (Merck), PBS (−) was added to make 1000 μg/ml solution or a uniform suspension, and then diluted with PBS (−) containing the DMSO. Doxorubicin (DOX) was used as the positive control drug.
(§2) 2. Cell Line • 1) A549 (human lung cancer cells); 2) HCT116 (human colon cancer cells); 3) HepG2 (human hepatoma cells); 4) ZR-75-30 (human breast cancer cells); 5) U87MG (human brain star glioblastoma)
(§3) DMEM+5-10% FBS+double resistant
(§4) MTT assay. 100 μl cell suspension was added at a concentration of 4˜5×10^4 cells/ml to each well of a 96-well plate, and was set at 37° C., 5% CO2 in the incubator. After 24 h, the sample solution was added, 10 μl/hole, double wells were set, 37° C., acting for 72 h at 5% CO2. […] of 5 mg/ml was added to each well, the dissolving liquid was added after acted for 4 h, 100 μl/hole, kept in the incubator, and read 570 nm OD with MK-2 automatic microplate reader after dissolution.

[2] = tested on: 60 kinds of human cancer cell lines; test: Cytotoxicity test on 60 kinds of human cancer cell lines from the US National Cancer Institute; type: cell-based
From the text: (§5) Cytotoxicity Test of Compound 9, 10 and 17 on 60 Kinds of Human Cancer Cell Lines from the US National Cancer Institute

[3] = target: PI3Kα (Homo sapiens, UniProt P42336); test: Kinase-Glo Luminescent Kinase Assay, PI3Kα; type: biochemical
[4] = target: mTOR (Homo sapiens, UniProt P42345); test: Lance Ultra Assay, mTOR; type: biochemical
[5] = tested on: five human tumor cells; test: MTT assay, five human tumor cells (summary in words); type: cell-based; conditions: A549, HCT116, HepG2, ZR-75-30, U87MG
Description: as §1, §2, §3, §4

[6] = target: PI3K delta (Homo sapiens, UniProt O00329); test: Kinase-Glo Luminescent Kinase Assay, PI3K delta; type: biochemical
[7] = tested on: SN12C; test: NCI cytotoxicity test, SN12C; type: cell-based; conditions: Homo sapiens
From the text: as §5

[8] = tested on: MCF7; test: NCI cytotoxicity test, MCF7; type: cell-based; conditions: Homo sapiens
From the text: as §5

[9] = tested on: COLO205; test: NCI cytotoxicity test, COLO205; type: cell-based; conditions: Homo sapiens, COLO 205
From the text: as §5

[10] = target: PI3Kβ (Homo sapiens, UniProt P42338); test: ADP-Glo Luminescent Kinase Assay, PI3Kβ; type: biochemical; conditions: read-out: IC50 on PI3K beta
[11] = tested on: A549; test: NCI cytotoxicity test, A549; type: cell-based; conditions: Homo sapiens
From the text: as §5

[12] = tested on: PC3; test: NCI cytotoxicity test, PC3; type: cell-based; conditions: Homo sapiens, PC-3
From the text: as §5

[13] = tested on: HCT116 (human colon cancer cells); test: MTT assay, HCT116; type: cell-based; conditions: HCT-116, 72 h
[14] = tested on: OVCAR3; test: NCI cytotoxicity test, OVCAR3; type: cell-based; conditions: Homo sapiens, OVCAR-3
From the text: as §5

[15] = tested on: A549 (human lung cancer cells); test: MTT assay, A549; type: cell-based; conditions: 72 h
Description: as §1, §2, §3, §4

[16] = tested on: SF539; test: NCI cytotoxicity test, SF539; type: cell-based; conditions: Homo sapiens, SF-539
From the text: as §5

[17] = target: PI3Kγ (Homo sapiens, UniProt P48736); test: ADP-Glo Luminescent Kinase Assay, PI3Kγ; type: biochemical; conditions: read-out: IC50 on PI3K gamma
[18] = Solubility test in buffer solution at pH=1; type: physicochemical; conditions: pH=1 buffer solution, simulated gastric fluid, thermodynamic from solid; buffer solution pH=1
Description: Compound 9 1.02 mg was precisely weighed and placed in 1.5 mL of EP tube, and 10 uL pH=1 buffer solution was added, vortexed for 30S and ultrasonic for 20 min. There was a lot of visible turbidity after that.
20 uL buffer was added and ultrasounded and the solution was found still turbid. Turbidity reduced after the solution was diluted to 1 mL and vortexed, while there still exist residual after diluted to 2 mL.

[19] = tested on: human lung carcinoma A549 xenografts; test: In vivo efficacy on human lung carcinoma A549 xenografts in nude mice; design: species or system BALB/C nude mice; conditions: ig, GSK2126458 3 mg/kg, compound 9 10 mg/kg
From the text: Strain: BALB/C nude mice (SPF grade), Source: Shanghai Slac laboratory animal limited liability company, the production license number: SCXK (Shanghai) 2007-0005, the using license number: SYXK (Shanghai) 2009-0068, gender: male, weight: 18-20 g, the number of animals per group: 6.
A549 solid tumors which were well-grown were taken, cut to uniform bits of about 3 mm size under aseptic condition, every bit was inoculated to each mouse subcutaneously in the right armpit with trocar, and randomly divided into three groups, each treatment was:
1) Control (saline), gavage, the dose 25 ml/kg, 14 days;
3) Compound 9, gavage, the dose 10 mg/kg, 14 days;
Regrouped according to tumor size on the 13th day after inoculation, the animals of which tumor size is too large and too small were eliminated, the average tumor volume of each group are basically the same. Administration was carried out according to the above regimen; the dosing volume was 0.5 ml/20 g body weight. The axis (a), shorter diameter (b) of tumor was measured 2 times a week with an electronic digital caliper, calculate formula of tumor volume (tumor volume, TV) is as follows: TV=1/2×a×b2, calculate formula of relative tumor volume (relative tumor volume, RTV), is as follows: RTV=Vt/Vo, wherein Vo is the tumor volume measured at the time when dividing cages (i.e. dl), Vt is the tumor volume measured each time. […] T test was conducted. Animals were sacrificed 30 days after inoculation, dissected and the tumor mass were taken, tumor weight was measured.

Sequence of PI3Kγ (P48736 whole entry, species assumed): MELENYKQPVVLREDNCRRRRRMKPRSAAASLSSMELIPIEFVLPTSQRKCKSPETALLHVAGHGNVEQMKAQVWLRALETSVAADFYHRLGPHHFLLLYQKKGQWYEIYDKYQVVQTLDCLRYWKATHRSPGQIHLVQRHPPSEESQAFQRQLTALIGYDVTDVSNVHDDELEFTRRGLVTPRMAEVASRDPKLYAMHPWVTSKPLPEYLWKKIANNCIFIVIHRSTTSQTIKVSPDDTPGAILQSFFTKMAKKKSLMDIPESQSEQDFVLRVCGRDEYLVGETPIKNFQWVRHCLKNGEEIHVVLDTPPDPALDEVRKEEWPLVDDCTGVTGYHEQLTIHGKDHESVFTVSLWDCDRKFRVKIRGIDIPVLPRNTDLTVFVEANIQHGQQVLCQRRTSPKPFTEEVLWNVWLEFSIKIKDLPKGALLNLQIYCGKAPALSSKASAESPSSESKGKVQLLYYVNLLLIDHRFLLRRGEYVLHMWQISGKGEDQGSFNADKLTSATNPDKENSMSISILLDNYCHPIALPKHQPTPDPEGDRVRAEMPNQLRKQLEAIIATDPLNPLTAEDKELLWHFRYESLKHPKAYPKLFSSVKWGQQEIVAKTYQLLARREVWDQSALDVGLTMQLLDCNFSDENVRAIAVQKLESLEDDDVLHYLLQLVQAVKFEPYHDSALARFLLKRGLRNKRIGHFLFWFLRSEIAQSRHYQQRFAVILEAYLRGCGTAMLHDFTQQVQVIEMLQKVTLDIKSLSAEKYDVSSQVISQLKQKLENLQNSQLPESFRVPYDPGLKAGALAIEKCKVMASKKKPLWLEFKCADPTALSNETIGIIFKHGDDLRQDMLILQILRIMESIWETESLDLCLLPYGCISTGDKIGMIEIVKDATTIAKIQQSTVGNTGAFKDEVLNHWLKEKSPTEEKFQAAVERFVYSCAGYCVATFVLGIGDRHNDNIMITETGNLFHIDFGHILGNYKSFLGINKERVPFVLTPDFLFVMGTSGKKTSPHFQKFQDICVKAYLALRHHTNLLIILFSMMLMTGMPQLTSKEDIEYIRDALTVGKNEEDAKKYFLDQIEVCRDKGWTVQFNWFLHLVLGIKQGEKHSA
Sequence of PI3Kβ (P42338 whole entry, species assumed): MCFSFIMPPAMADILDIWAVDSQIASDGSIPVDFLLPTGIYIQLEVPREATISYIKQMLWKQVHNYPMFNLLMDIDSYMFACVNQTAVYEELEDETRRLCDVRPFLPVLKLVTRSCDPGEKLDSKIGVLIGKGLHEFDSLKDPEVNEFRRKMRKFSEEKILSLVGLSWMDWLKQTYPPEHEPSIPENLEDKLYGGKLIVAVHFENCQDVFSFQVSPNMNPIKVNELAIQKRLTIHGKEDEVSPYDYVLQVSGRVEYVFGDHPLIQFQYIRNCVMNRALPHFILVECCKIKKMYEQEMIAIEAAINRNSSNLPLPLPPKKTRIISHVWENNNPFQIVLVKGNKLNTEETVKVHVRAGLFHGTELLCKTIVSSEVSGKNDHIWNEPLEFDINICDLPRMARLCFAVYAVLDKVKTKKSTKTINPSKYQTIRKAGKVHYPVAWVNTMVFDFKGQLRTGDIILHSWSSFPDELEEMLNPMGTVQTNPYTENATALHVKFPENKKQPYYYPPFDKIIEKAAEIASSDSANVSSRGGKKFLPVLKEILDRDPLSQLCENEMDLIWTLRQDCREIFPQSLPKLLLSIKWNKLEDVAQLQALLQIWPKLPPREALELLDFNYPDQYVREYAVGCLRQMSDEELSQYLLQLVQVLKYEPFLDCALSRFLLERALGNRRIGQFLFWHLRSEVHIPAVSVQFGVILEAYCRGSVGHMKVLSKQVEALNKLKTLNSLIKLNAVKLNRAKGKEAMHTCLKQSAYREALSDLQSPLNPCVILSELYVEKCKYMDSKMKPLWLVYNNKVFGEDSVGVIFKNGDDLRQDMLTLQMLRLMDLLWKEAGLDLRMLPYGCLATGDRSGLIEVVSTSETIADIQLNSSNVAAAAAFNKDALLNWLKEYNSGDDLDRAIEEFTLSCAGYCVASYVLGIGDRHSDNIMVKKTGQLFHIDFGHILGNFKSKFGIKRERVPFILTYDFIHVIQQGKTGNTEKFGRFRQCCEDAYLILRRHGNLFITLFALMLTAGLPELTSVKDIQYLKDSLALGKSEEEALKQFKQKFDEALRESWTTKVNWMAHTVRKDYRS
Sequence of PI3Kβ (P27986 whole entry partner, species assumed): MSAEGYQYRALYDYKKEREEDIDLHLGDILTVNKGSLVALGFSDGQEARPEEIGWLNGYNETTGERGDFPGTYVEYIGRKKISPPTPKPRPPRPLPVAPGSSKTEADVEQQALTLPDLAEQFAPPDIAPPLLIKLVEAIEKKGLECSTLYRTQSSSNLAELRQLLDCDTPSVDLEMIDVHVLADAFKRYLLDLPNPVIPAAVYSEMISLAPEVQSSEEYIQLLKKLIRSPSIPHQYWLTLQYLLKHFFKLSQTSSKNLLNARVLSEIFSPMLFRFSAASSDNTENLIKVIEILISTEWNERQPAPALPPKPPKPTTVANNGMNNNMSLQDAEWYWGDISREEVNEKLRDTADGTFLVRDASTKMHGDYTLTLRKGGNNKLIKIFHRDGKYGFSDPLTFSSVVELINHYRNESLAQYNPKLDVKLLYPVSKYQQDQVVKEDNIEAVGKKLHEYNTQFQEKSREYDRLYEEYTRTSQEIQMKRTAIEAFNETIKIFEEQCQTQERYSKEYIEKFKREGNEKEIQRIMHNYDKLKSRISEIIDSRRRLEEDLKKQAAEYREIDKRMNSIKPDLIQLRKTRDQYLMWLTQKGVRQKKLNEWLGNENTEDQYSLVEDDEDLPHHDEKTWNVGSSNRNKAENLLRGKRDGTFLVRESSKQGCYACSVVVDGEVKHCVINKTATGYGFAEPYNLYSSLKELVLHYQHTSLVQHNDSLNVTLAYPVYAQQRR
Sequence of PI3Kα (P42336 whole entry, species assumed): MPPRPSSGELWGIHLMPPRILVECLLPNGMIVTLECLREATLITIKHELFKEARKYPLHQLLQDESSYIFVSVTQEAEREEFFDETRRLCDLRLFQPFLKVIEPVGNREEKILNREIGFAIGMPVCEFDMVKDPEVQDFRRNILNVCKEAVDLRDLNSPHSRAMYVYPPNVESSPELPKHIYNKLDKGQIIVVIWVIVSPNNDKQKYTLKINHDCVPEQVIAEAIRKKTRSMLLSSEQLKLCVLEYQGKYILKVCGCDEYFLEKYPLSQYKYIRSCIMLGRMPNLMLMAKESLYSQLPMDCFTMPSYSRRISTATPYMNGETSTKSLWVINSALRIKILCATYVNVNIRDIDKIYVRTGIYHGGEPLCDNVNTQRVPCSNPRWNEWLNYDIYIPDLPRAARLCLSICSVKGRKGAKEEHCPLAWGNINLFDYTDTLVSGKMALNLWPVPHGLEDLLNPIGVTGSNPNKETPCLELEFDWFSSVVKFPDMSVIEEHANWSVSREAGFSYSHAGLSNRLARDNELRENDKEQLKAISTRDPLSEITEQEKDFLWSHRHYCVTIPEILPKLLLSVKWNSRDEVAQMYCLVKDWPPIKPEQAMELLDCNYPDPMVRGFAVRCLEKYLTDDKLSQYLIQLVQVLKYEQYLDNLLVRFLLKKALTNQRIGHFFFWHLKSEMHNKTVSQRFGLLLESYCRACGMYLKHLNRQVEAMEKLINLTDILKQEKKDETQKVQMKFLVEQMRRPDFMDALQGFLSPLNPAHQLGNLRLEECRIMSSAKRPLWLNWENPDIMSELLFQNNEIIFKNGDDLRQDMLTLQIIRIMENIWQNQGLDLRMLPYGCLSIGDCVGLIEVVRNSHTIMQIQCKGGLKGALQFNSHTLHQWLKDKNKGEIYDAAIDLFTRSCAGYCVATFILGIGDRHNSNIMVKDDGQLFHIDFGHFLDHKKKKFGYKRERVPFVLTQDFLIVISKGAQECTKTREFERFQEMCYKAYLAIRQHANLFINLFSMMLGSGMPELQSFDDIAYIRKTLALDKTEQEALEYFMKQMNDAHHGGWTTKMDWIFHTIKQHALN
Sequence of PI3Kα (P27986 whole entry partner, species assumed): as the sequence (P27986 whole entry partner, species assumed) above
Sequence of PI3K delta (O00329 whole entry): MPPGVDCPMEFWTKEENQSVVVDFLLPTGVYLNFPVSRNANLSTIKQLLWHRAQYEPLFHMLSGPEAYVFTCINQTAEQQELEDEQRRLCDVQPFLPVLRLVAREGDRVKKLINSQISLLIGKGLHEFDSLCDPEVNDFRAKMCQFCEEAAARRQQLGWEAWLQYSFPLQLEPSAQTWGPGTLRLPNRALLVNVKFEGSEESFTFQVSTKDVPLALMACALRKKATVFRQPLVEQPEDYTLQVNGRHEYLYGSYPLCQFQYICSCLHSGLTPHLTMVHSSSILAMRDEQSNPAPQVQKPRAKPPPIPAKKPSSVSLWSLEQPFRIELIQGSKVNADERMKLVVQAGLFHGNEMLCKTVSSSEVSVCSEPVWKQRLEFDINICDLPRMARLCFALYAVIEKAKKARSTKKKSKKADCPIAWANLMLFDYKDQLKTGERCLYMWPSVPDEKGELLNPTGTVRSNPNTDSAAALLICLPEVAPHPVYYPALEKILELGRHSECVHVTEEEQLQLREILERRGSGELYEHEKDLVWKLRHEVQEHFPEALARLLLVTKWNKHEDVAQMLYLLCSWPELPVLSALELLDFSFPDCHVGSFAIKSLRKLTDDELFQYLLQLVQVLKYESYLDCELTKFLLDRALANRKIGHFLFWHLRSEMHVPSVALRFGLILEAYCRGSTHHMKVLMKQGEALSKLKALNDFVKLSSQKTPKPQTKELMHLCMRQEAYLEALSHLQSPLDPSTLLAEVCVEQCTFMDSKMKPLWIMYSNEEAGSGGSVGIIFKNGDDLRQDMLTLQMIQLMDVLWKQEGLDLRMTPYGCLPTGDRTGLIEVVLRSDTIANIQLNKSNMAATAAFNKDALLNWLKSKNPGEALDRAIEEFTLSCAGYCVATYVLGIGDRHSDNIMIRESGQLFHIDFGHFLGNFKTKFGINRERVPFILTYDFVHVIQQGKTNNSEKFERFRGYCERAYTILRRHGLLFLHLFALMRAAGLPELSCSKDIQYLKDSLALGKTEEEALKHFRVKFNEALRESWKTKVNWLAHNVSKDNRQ
Sequence of PI3K delta (P27986 whole entry partner): as the sequence (P27986 whole entry partner, species assumed) above

IC50 [1]: 0.092 µg/mL (≈ 0.156 µM) | melting point: 84 to 85 °C | IC50 [3]: 0.59 nM | IC50 [4]: 2.2 nM | IC50 [6]: 3.4 nM | IC50 [10]: 1.1 nM | IC50 [13]: 0.0028 µg/mL (≈ 0.00474 µM) | IC50 [15]: 0.012 µg/mL (≈ 0.0203 µM) | IC50 [17]: 1.1 nM
SMILES: COc1ncc(-c2ccc3nccc(-c4ccc(CN(C)CCO)cc4)c3c2)cc1NS(=O)(=O)c1ccc(F)cc1F [Compound 17, N-(5-(4-(4-(((2-hydroxyethyl)(methyl)amino)methyl)phenyl)quinolin-6-yl)-2-methoxypyridine-3-yl)-2,4-difluorobenzenesulfonamide]
GI50 ([2]; on the 38 tumor cell lines, read-out: average half growth inhibitory concentration (GI50)): < 10 nM | GI50 ([2]; on the 60 kinds of tumor cells, read-out: Average GI50): 15.8 nM | in vitro proliferation inhibition (in words) [5]: high in vitro proliferation inhibition | GI50 [7]: < 10 nM | GI50 [8]: < 10 nM | GI50 [9]: < 10 nM | GI50 [11]: < 10 nM | GI50 [12]: < 10 nM | GI50 [14]: < 10 nM | GI50 [16]: < 10 nM

solubility at 20 min [18]: 200 µg/mL (≈ 396 µM) | IC50 [1]: 0.537 µg/mL (≈ 1.06 µM) | Animal wight (g) (tumor removed) ([19]; at end): 21.41 ± 1.49 g | IC50 [15]: 0.014 µg/mL (≈ 0.0277 µM) | IC50 [17]: 0.61 nM
SMILES: COc1ncc(-c2ccc3nccc(-c4ccnnc4)c3c2)cc1NS(=O)(=O)c1ccc(F)cc1F [GSK2126458, reference compound]
Tumor Inhibition rate % [19]: 65.93% | RTV (d18) x ± SD ([19]; d18): 6.91 ± 1.97

Reference: US20160168118A1, “N-(5-QUINOLIN-6-YL)PYRIDIN-3-YL) BENZSULFAMIDE DERIVATIVES, PREPARATION METHOD AND THERAPEUTIC USE THEREOF” (SECOND MILITARY MEDICAL UNIVERSITY, PLA, priority 2012, published 2016)
